Data from US4515708A, “Corrosion inhibitors” (Exxon Research & Engineering Co., priority 1982, dated 1985).
Blank lines part the entries; values can stand above or below the molecule they belong to.

How the values were obtained:
[1] = Corrosion Test 1 (dynamic wheel test; 3 wt% brine/Mentor 28; CO2 + H2S); conditions: 24 h, 70° C., 30% solution
Method: (§1) For each compound three mild steel coupons (approximately 100 mm×12 mm×1.5 mm) were tested at each concentration. Each was contacted in a 250 ml bottle with 200 ml of a test fluid either saturated with a carbon dioxide at 20° C. or containing 100 ppm hydrogen sulphide or having both CO2 and H2 S present in those amounts. The test fluid was treated with a 30% aqueous solution of the compound under test at 2, 10, 50 and 250 ppm except where indicated to the contrary. The coupon was subjected to a dynamic wheel test in which the bottle was mounted radially on the periphery of 650 mm diameter wheel which was rotated at about 40 rpm for 24 hours at 70° C. The weight loss was obtained, and also measured in a control experiment where no inhibitor was present. From this the % protection was calculated as % reduction in weight loss.
Test fluid: 100 ml 3 wt% brine/100 ml Mentor 28 (Mentor®28 is a depolarised kerosene available from Exxon Chemical Company)
(§2) Corrosives: Saturated CO2 +100 ppm H2 S

[2] = Corrosion Test 4 (dynamic wheel test; 3 wt% brine + Mentor 28; H2S); conditions: 24 h, 70° C.
Method: as §1
(§3) Test fluid: 100 ml 3 wt% brine+100 ml Mentor 28
Corrosives: 100 ppm H2 S (prior nitrogen purge)

[3] = Corrosion inhibition tests, constant concentration conditions (overall)
Method: as §1

[4] = Solubility Test (35 wt% solution in isopropylalcohol shaken with water, brine or heptane); type: physicochemical; conditions: for SOLUBILITY IN: Heptane: 0.3 ml of 35 wt% IPA solution in 10 ml heptane, 30 minutes and 24 hours; for SOLUBILITY IN: Water: 0.3 ml of 35 wt% IPA solution in 10 ml water, observed after 30 minutes and 24 hours
Method: The active material under test was made up into a 35 wt% solution in isopropylalcohol (IPA). 0.3 ml of this solution was shaken with 10 ml of each of the liquids in which solubility is to be tested: water, 5 wt% NaCl solution (brine) and heptane. The mixture was observed after 30 minutes and 24 hours.

[5] = Emulsion Test (3 wt% brine / heptane); type: physicochemical; design: Emulsion thickness after 30 mins: unit not given here; conditions: for Time to break emulsion: 1 ml of 35 wt% IPA solution, 50 ml 3 wt% brine, 50 ml heptane; for Appearance after 30 mins, hydrocarbon: hydrocarbon layer; for Appearance after 30 mins, water: water layer
Method: 1 ml of the solutions used for Test A was shaken with 50 ml of 3 wt% brine and 50 ml of heptane for 1 minute in a 150 ml bottle. The emulsion was observed, and the time noted for the emulsion to break and form a clean interface with clear liquid layers. If at 30 minutes this had not occurred, the appearance was recorded together with the thickness of any persisting emulsion.

[6] = Corrosion Test 2 (dynamic wheel test; 3 wt% brine; CO2 + H2S); conditions: 24 h, 70° C.
Method: as §1
Test Fluid: 200 ml 3 wt% brine
as §2

[7] = Corrosion Test 3 (dynamic wheel test; 3 wt% brine + Mentor 28; CO2 only); conditions: 24 h, 70° C.
Method: as §1, §3
Corrosives: Saturated CO2 only

[8] = Film persistency corrosion test; conditions: CO2 + H2S, 24 h, 70° C.
Method: […] A test fluid made up of equal proportions of 3 wt% brine and Mentor 28 was used, saturated with CO2 and containing 100 ppm H2 S as corrosives. Coupons were used as described for the previous corrosion test. A coupon was first immersed in test fluid containing corrosives and the inhibitor under test for 1 hour, then rinsed for 1 hour in a similar test fluid containing no inhibitor and finally transferred to a further test fluid again containing no inhibitor in which the dynamic wheel test was carried out at 70° C. for 24 hours.

[9] = 50 ml 3 wt% brine/50 ml heptane

Compound: CCCCCCCCCCCCN(CCc1ccccn1)CCc1ccccn1 [Example 19]
% Protection ([1]; 2 ppm): 16%
% Protection ([1]; 10 ppm): 71%
% Protection ([1]; 50 ppm): 77%
% Protection ([1]; 250 ppm): 86%
% Protection ([2]; 2 ppm): 2%
% Protection ([2]; 10 ppm): 57%
% Protection ([2]; 250 ppm): 57%
performance of 2:1 derivatives compared with 1:1 derivatives [3]: tended to perform less well than 1:1 derivatives
SOLUBILITY IN: Heptane [4]: S
SOLUBILITY IN: Water [4]: S
Time to break emulsion [5]: > 30 min
Appearance after 30 mins, hydrocarbon [5, 9]: hazy
Appearance after 30 mins, water [5, 9]: hazy

Compound: c1ccc(CN(CCc2ccccn2)CCc2ccccn2)cc1 [Example 20]
% Protection ([1]; 2 ppm): 24%
% Protection ([1]; 10 ppm): 25%
% Protection ([1]; 50 ppm): 63%
% Protection ([1]; 250 ppm): 81%
% Protection ([6]; 2 ppm): 51%
% Protection ([6]; 10 ppm): 63%
% Protection ([6]; 50 ppm): 75%
% Protection ([6]; 250 ppm): 91%
performance of 2:1 derivatives compared with 1:1 derivatives [3]: tended to perform less well than 1:1 derivatives
SOLUBILITY IN: Heptane [4]: S
SOLUBILITY IN: Water [4]: S
Time to break emulsion [5]: 1 min
Appearance after 30 mins, hydrocarbon [5, 9]: clear
Appearance after 30 mins, water [5, 9]: clear

Time to break emulsion [5]: 1 min
Appearance after 30 mins, hydrocarbon [5, 9]: clear
Appearance after 30 mins, water [5, 9]: clear
Compound: CCCCCCN(CCc1ccncc1)CCc1ccncc1 [Example 38]
% Protection ([1]; 2 ppm): 2%
% Protection ([1]; 10 ppm): 64%
% Protection ([1]; 50 ppm): 79%
% Protection ([1]; 250 ppm): 80%
performance of 2:1 derivatives compared with 1:1 derivatives [3]: tended to perform less well than 1:1 derivatives

Time to break emulsion [5]: > 30 min
Emulsion thickness after 30 mins [5, 9]: 0.1
Appearance after 30 mins, hydrocarbon [5, 9]: hazy
Appearance after 30 mins, water [5, 9]: hazy
Compound: CCCCCCCCCCCCN(CCc1ccncc1)CCc1ccncc1 [Example 39]
% Protection ([1]; 2 ppm): 26%
% Protection ([1]; 10 ppm): 70%
% Protection ([1]; 50 ppm): 89%
% Protection ([1]; 250 ppm): 89%
% Protection ([7]; 2 ppm): 9%
% Protection ([7]; 10 ppm): 5%
% Protection ([7]; 250 ppm): 15%
% Protection ([2]; 2 ppm): 3%
% Protection ([2]; 10 ppm): 26%
% Protection ([2]; 50 ppm): 64%
% Protection ([2]; 250 ppm): 85%
% Protection ([8]; 500 ppm): 20%
% Protection ([8]; 1000 ppm): 24%
% Protection ([8]; 5000 ppm): 33%
% Protection ([6]; 2 ppm): 41%
% Protection ([6]; 10 ppm): 65%
% Protection ([6]; 50 ppm): 78%
% Protection ([6]; 250 ppm): 87%
performance of 2:1 derivatives compared with 1:1 derivatives [3]: tended to perform less well than 1:1 derivatives
